One molecule from paper PMC11968281, “eIF3d and eIF4G2 mediate an alternative mechanism of cap-dependent but eIF4E-independent translation initiation” (The Journal of Biological Chemistry, 2025) can be followed below.

The target in this assay is T1, eIF3d and eIF4G2 complex (Homo sapiens, UniProt O15371).
T1 construct: both recombinant from E. coli, 6xHis tags cut by TEV; full-length human eIF4G2; with Eukaryotic translation initiation factor 4 gamma 2
The assay can be described thus: fluorescence anisotropy competition with fluorescein-labelled m7G-capped […]'UTR RNA. It counts as binding. The note with it: 20 mM Hepes-KOH pH 7.5, 100 mM KCl, 1 mM MgCl2, 25 C, cap analog competing with 10 nM capped CD101, ITGAE or ACTB RNA, m7GDP concentration not given, ligand site assigned to the eIF3d c.

T1 sequence (O15371 whole entry): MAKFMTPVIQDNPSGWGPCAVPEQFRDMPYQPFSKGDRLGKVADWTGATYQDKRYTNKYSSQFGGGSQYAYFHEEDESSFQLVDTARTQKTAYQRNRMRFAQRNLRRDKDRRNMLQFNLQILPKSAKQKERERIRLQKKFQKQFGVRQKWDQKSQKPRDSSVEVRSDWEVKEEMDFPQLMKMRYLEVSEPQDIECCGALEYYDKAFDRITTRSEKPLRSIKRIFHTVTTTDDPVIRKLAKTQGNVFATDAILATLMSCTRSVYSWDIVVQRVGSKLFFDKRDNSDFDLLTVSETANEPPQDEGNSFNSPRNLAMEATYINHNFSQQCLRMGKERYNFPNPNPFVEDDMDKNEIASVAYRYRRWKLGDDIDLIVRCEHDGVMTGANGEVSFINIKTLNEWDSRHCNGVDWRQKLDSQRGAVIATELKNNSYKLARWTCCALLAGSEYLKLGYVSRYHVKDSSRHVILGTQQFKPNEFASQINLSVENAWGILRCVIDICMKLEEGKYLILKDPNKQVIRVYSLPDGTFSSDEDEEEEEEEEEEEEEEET
T1 sequence (P78344 whole entry partner): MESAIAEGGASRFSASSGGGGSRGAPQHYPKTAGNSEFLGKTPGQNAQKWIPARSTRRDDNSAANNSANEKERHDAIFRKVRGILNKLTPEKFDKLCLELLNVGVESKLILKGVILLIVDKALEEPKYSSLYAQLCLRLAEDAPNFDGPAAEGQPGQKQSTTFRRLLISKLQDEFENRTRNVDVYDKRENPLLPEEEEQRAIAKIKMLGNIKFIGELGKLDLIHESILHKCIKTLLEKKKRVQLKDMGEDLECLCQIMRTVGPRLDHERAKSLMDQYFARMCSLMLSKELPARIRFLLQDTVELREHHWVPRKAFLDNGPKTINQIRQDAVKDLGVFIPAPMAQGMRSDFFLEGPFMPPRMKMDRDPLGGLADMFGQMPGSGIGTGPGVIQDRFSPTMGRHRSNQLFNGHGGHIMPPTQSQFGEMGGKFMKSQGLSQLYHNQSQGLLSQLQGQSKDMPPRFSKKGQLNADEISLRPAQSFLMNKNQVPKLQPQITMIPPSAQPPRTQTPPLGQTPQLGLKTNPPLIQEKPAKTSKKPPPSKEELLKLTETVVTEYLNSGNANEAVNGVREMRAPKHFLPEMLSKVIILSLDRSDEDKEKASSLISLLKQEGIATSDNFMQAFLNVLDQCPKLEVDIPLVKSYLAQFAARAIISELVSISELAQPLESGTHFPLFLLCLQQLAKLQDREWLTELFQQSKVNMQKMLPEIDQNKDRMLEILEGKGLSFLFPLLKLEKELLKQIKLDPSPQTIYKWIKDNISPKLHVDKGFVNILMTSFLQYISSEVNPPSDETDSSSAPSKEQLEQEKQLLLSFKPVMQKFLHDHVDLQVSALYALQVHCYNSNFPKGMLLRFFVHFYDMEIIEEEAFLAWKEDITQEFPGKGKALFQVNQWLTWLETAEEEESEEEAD

In the case of `C[n+]1cn([C@@H]2O[C@H](COP(=O)(O)OP(=O)(O)O)[C@@H](O)[C@H]2O)c2nc(N)[nH]c(=O)c21` [m^7GDP], the “fluorescence anisotropy competition with fluorescein-labelled m7G-capped 5'UTR R” value is “reduction in the binding affinity of the eIF3d/eIF4G2 complex to the m^7G cap was also observed”.
